Assay results from patent publication US20080132569A1, “Antifungal Compositions for Inhibiting Growth of Wood Decay Fungi and Use Thereof” (priority 2006, published 2008).
Converted amounts (≈) assume the structure as drawn. “And” between values parts separate entries of the source, which are not always exact repeats. Equal values may be shown once. Read-outs that look alike come from different tables or passages of the source. Marks after values point to notes of the source that are not given here.

What was measured:
[1] = Antifungal assay, mycelium growth on PDA containing the chemical; details: for Antifungal index: 50 μg/ml
[2] = as above
[3] = MIC and MFC determination on PDA; details: L. betulina
[4] = MIC and MFC determination on PDA; details: L. sulphureus
[5] = Antifungal assay, mycelium growth on PDA containing the chemical; details: T. versicolor; for Antifungal index (%): Table 1
[6] = as above; details: G. trabeum; for Antifungal index (%): Table 1
[7] = Antifungal activity on paper (CNS 2690, TAPPI T487 cm-93); details: A. terreus, 14 days
[8] = as above; details: A. niger, 14 days
[9] = as above; details: C. globosum, 14 days
[10] = L. betulina, 100 μg/ml, Table 4, mean ± SE (n = 5)
[11] = L. betulina, Table 5, mean ± SE (n = 5), combinations at 1:1 ratio in molarities
[12] = L. betulina, Table 5, mean ± SE (n = 5), combinations at 1:1 ratio in molarities, read-out: IC50
[13] = L. sulphureus, 100 μg/ml, Table 4, mean ± SE (n = 5)
[14] = L. sulphureus, Table 5, mean ± SE (n = 5), combinations at 1:1 ratio in molarities
[15] = L. sulphureus, Table 5, mean ± SE (n = 5), combinations at 1:1 ratio in molarities, read-out: IC50
[16] = L. sulphureus, single compound at 0.17 mM
[17] = L. betulina, 100 μg/ml, Table 1
[18] = L. sulphureus, 100 μg/ml, Table 1
[19] = Example 1, FIG. 1(A), read-out: IC50 (concentration that inhibited 50% of the mycelium growth)

catechin
Antifungal index (%) [1, 10]: 3 ± 1.5^b % | Antifungal index (%) ([1]; L. betulina, 100 μg/ml, Table 4, mean ± SE (n = 5), listed as catechin): did not express antifungal activities | IC90 [1, 11]: > 100000 µM | IC50 [1, 12]: > 100000 µM | Antifungal index (%) [2, 13]: 5 ± 1.8^b % | Antifungal index (%) ([2]; L. sulphureus, 100 μg/ml, Table 4, mean ± SE (n = 5), listed as catechin): did not express antifungal activities | IC90 [2, 14]: 80000 ± 140 µM | IC50 [2, 15]: 40000 ± 120 µM

O=C(O)CN(CCN(CC(=O)O)CC(=O)O)CC(=O)O [EDTA, diaminoethanetetraacetic acid]
Antifungal index ([1]; Lenzites betulina, Example 5): 90% | Antifungal index ([2]; Laetiporus sulphureus, 50 μg/ml, Example 5): 10%

C=CCc1ccc(O)c(OC)c1 [Eugenol, eugenol]
Antifungal index (%) [1, 10]: 100 ± 0.0^a % | Antifungal index (%) ([1]; L. betulina, 100 μg/ml, Table 4, mean ± SE (n = 5), listed as eugenol): 100% | IC90 [1, 11]: 650 ± 50 µM | IC50 [1, 12]: 370 µM | Antifungal index (%) [2, 13]: 100 ± 0.0^a % | Antifungal index (%) ([2]; L. sulphureus, 100 μg/ml, Table 4, mean ± SE (n = 5), listed as eugenol): 100% | IC90 [2, 14]: 520 ± 10 µM | IC50 [2, 15]: 250 µM | Antifungal index [2, 16]: 24% | MFC [3]: 700 µM (≈ 115 µg/mL) | MIC [3]: 700 µM (≈ 115 µg/mL) | MFC [4]: 650 µM (≈ 107 µg/mL) | MIC [4]: 650 µM (≈ 107 µg/mL)

Cc1cc(C(C)(C)C)c(O)c(C(C)(C)C)c1 [BHT, Butylated hydroxyltoluene, reference compound]
Antifungal index (%) [1, 17]: 16 ± 3.4% | Antifungal index (%) ([5]; 100 μg/ml): 23 ± 2.6% | Antifungal index (%) ([6]; 100 μg/ml): 0 ± 0% | Antifungal index (%) [2, 18]: 21 ± 5.6%

CCCOC(=O)c1cc(O)c(O)c(O)c1 [Propyl gallate, propyl gallate]
Antifungal index (%) [1, 17]: 1 ± 1.9% | Antifungal index (%) ([5]; 100 μg/ml): 0 ± 0% | Antifungal index (%) ([6]; 100 μg/ml): 2 ± 0.6% | Antifungal index (%) [2, 18]: 0 ± 0% | Percent inhibition ratio ([7]; 100 μg/cm^2 on filter paper): 0 ± 0% | Percent inhibition ratio ([7]; 400 μg/cm^2 on filter paper): 0 ± 0% | Percent inhibition ratio ([8]; 100 μg/cm^2 on filter paper): 0 ± 0% | Percent inhibition ratio ([8]; 400 μg/cm^2 on filter paper): 0 ± 0% | Percent inhibition ratio ([9]; 100 μg/cm^2 on filter paper): 0 ± 0% | Percent inhibition ratio ([9]; 100 μg/cm^2 on filter paper, listed as propyl gallate): did not show any antifungal activity | Percent inhibition ratio ([9]; 400 μg/cm^2 on filter paper): 100 ± 0% | Percent inhibition ratio ([9]; 400 μg/cm^2 on filter paper, listed as propyl gallate): 100%

O=CC=Cc1ccccc1 [Cinnamaldehyde, cinnamaldehyde]
Antifungal index ([1]; L. betulina, Example 3, FIG. 2(A)): 6% | Antifungal index (%) [1, 17]: 100 ± 0% | Antifungal index (%) [1, 10]: 100% and 100 ± 0.0^a % | IC50 ([1]; L. betulina, Example 1, FIG. 1(A), read-out: IC50 (concentration that inhibited 50% of the mycelium growth)): 650 µM | IC90 [1, 11]: 720 ± 60 µM | IC50 [1, 12]: 650 µM | Antifungal index (%) ([5]; 100 μg/ml): 34 ± 2.2% | IC50 [5, 19]: 1110 µM | Antifungal index ([6]; 50 μg/ml, Example 3, FIG. 2(B)): 22% | Antifungal index (%) ([6]; 100 μg/ml): 31 ± 0.7% | IC50 [6, 19]: 1050 µM | Antifungal index (%) [2, 18]: 100 ± 0% | Antifungal index (%) [2, 13]: 100% and 100 ± 0.0^a % | IC50 ([2]; L. sulphureus, Example 1, FIG. 1(A), read-out: IC50 (concentration that inhibited 50% of the mycelium growth)): 170 µM | IC90 [2, 14]: 530 ± 20 µM | IC50 [2, 15]: 230 µM | Antifungal index [2, 16]: 41% | MFC [3]: 750 µM (≈ 99.1 µg/mL) | MIC [3]: 750 µM (≈ 99.1 µg/mL) | MFC [4]: 700 µM (≈ 92.5 µg/mL) | MIC [4]: 700 µM (≈ 92.5 µg/mL)

O=c1c(O)c(-c2ccc(O)c(O)c2)oc2cc(O)cc(O)c12 [Quercetin, quercetin]
Antifungal index (%) [1, 10]: 0 ± 0.0^b % | Antifungal index (%) ([1]; L. betulina, 100 μg/ml, Table 4, mean ± SE (n = 5), listed as quercetin): did not express antifungal activities | IC90 [1, 11]: > 100000 µM | IC50 [1, 12]: > 100000 µM | Antifungal index (%) [2, 13]: 0 ± 0.0^c % | Antifungal index (%) ([2]; L. sulphureus, 100 μg/ml, Table 4, mean ± SE (n = 5), listed as quercetin): did not express antifungal activities | IC90 [2, 14]: > 100000 µM | IC50 [2, 15]: 64000 ± 250 µM

CCCC1COC(Cn2cncn2)(c2ccc(Cl)cc2Cl)O1 (stereo not drawn) [Propiconazole, propiconazole]
Antifungal index (%) ([1]; L. betulina, 1 μg/ml (propiconazole), Table 1): 100 ± 0% | Antifungal index (%) ([1]; L. betulina, 1 μg/ml (propiconazole), Table 1, listed as propiconazole): 100% | Antifungal index (%) ([1]; L. betulina, 1 μg/ml (propiconazole), Table 4, mean ± SE (n = 5)): 100 ± 0.0^a % | Antifungal index (%) ([1]; L. betulina, 1 μg/ml (propiconazole), Table 4, mean ± SE (n = 5), listed as propiconazole): completely inhibited | Antifungal index (%) ([5]; 1 μg/ml (propiconazole)): 92 ± 0.6% | Antifungal index (%) ([6]; 1 μg/ml (propiconazole)): 52 ± 3.7% | Antifungal index (%) ([2]; L. sulphureus, 1 μg/ml (propiconazole), Table 1): 100 ± 0% | Antifungal index (%) ([2]; L. sulphureus, 1 μg/ml (propiconazole), Table 1, listed as propiconazole): 100% | Antifungal index (%) ([2]; L. sulphureus, 1 μg/ml (propiconazole), Table 4, mean ± SE (n = 5)): 100 ± 0.0^a % | Antifungal index (%) ([2]; L. sulphureus, 1 μg/ml (propiconazole), Table 4, mean ± SE (n = 5), listed as propiconazole): completely inhibited
